# Data taken from PMC9916770, “Lycorine Carbamate Derivatives for Reversing P-glycoprotein-Mediated Multidrug Resistance in Human Colon Adenocarcinoma Cells” (International Journal of Molecular Sciences, 2023).
# What was measured:
# MRC-5 cells = experiment: MTT antiproliferative assay, normal lung fibroblasts; type: cell-based; conditions: Homo sapiens, normal embryonal lung fibroblasts, 72 h, mean ± SD, read-out: IC50 MCR-5 (C)
# Procedure: (§1) The human colon adenocarcinoma cell lines Colo205 doxorubicin-sensitive (CCL-222, ATCC, Manassas, VA, USA) and the resistant Colo320/MDR-LRP expressing P-gp were purchased from LGC Promochem (Teddington, UK). The MRC-5 human embryonal lung fibroblast cell line (CCL-171, ATCC) was purchased from Sigma-Aldrich (Merck KGaA, Darmstadt, Germany). The human colon adenocarcinoma cells (Colo205 and Colo320) were cultured in an RPMI 1640 medium supplemented with 10% fetal bovine serum (FBS), 2 mM L-glutamine, 1 mM Na-pyruvate, and 100 mM HEPES. The semi-adherent human colon cancer cells were detached with a trypsin-Versene (EDTA) solution for 5 min at 37 °C. The MRC-5 human embryonal lung fibroblast cells were cultured in EMEM containing 4.5 g/L of glucose and supplemented with a non-essential amino acid mixture, a selection of vitamins, and 10% FBS. The cell lines were incubated at 37 °C, 5% CO2, and 95% air atmosphere.
# (§2) The antiproliferative effect of the compounds was tested in decreasing serial dilutions of compounds (starting with 100 µM, then two-fold serial dilution) on human cell lines (Colo205, Colo320, and MRC-5) in 96-well flat-bottomed microtiter plates. Firstly, the compounds were diluted in 100 µL of the medium, and then 6 × 10^3 cells (Colo205 and Colo320), in 100 µL of medium, were added to each well, excluding the medium control wells. The MRC-5 adherent cell line was seeded in the EMEM medium for at least 4 h before the assay. The two-fold serial dilutions of the compounds were made in a separate plate (100–0.19 μM) and then transferred to the plates containing the adherent corresponding cell line. Culture plates were incubated at 37 °C for 72 h, and at the end of the incubation period, 20 μL of MTT (thiazolyl blue tetrazolium bromide) solution (from a 5 mg/mL stock solution) was added to each well and incubated for an additional 4 h. Then, 100 μL of sodium dodecyl sulfate (SDS) solution (10% SDS in 0.01 M HCl) was added to each well, and the plates were further incubated at 37 °C overnight in a CO2 incubator. Cell growth was determined by measuring the optical density (OD) at 540/630 nm with a Multiscan EX ELISA reader (Thermo Labsystems, Cheshire, WA, USA). […] IC50 values and the standard deviation (SD) of triplicate experiments were calculated by using GraphPad Prism 5 software for Windows. Doxorubicin (2 mg/mL, Teva Pharmaceuticals, Budapest, Hungary) was used as a positive control and the vehicle DMSO as the negative control. (1) IC50=[ODsample−ODmedium control/ODcell control−ODmedium control]×100
# (§3) The relative resistance (RR) was calculated as the ratio of the IC50 value in the resistant cancer cells and the IC50 in the sensitive cancer cell lines. The selectivity indexes (SI) were calculated as the ratio of the IC50 values in the non-tumor cells and the IC50 in the cancer cell lines. The activity of the compounds toward cancer cells is considered strongly selective if the selectivity index (SI) value is higher than 6, moderately selective if 3 < SI < 6, slightly selective if 1 < SI < 3, and non-selective if SI is lower than 1.
# Colo320 cells [1] = experiment: MTT antiproliferative assay, resistant cells; type: cell-based, human; conditions: for IC50: Homo sapiens, COLO 320, resistant Colo320, MTT, 72 h, mean ± SD, read-out: IC50 Colo320 (B); for SI (selectivity index) C/B: IC50 MRC-5 / IC50 Colo320
# Procedure: as §1, §2, §3
# Colo205 cells = experiment: MTT antiproliferative assay, sensitive cells; type: cell-based, human; conditions: for IC50: Homo sapiens, COLO 205, sensitive Colo205, MTT, 72 h, mean ± SD; for SI (selectivity index) C/A: IC50 MRC-5 / IC50 Colo205
# Procedure: as §1, §2, §3
# Colo320 cells [2] = experiment: Checkerboard drug combination assay with doxorubicin; type: cell-based, human; conditions: for Type of interaction: Colo320
# Procedure: The interaction of lycorine (1) and some selected derivatives (2, 5, 9, 13, 16, 19, 25, and 26) in combination with the chemotherapeutic drug doxorubicin was performed by the checkerboard assay, a widely used technique for assessing drug interactions, in resistant human Colo320 colon adenocarcinoma cells. The type of drug–drug interaction was evaluated by using the Chou and Talalay method for drug combination and expressed using the combination index (CI) values, and therefore evaluated as synergism (CI < 1), additive (CI = 1), or antagonist (CI > 1).
# Drug combination interactions between the compounds and the chemotherapeutic drug doxorubicin were assessed by the checkboard microplate assay on the resistant Colo320, expressing the P-gp transporter. Doxorubicin was serially diluted in the horizontal direction in 100 µL, starting with 8.6 µM, and the compounds were subsequently diluted in the vertical direction in 50 µL. The starting concentration was determined based on the IC50 values. The cells were resuspended in a culture medium and distributed into each well in 50 µL, containing 6 × 10^3 cells, to a final volume of 200 µL per well. The plates were incubated for 72 h at 37 °C in a CO2 incubator, and the cell growth was determined by the MTT staining method, as described previously. Drug interactions were evaluated using CompuSyn software to plot 4 or 5 data points for each ratio (ref software). The results were expressed in terms of combination index (CI) values of 50% growth inhibition, in which a CI value close to 1 indicates additivity, while a CI < 1 is defined as synergy, and a CI > 1 as antagonism.
Compound,IC50 (MRC-5 cells),IC50 (Colo320 cells [1]),IC50 (Colo205 cells),SI (selectivity index) C/B (Colo320 cells [1]),SI (selectivity index) C/A (Colo205 cells),Type of interaction (Colo320 cells [2]),"CI at IC50 (combination index) (Colo320 cells [2]; Colo320, 50% growth inhibition)",RR (relative resistance ratio) B/A (Colo320 cells [1]; IC50 resistant Colo320 / IC50 sensitive Colo205)
"O=C(NCc1ccc2c(c1)OCO2)OC1C=C2CCN3Cc4cc5c(cc4C(C1OC(=O)NCc1ccc4c(c1)OCO4)C23)OCO5 (stereo not shown) [Compound 7, Lycorine 1,2-diyl bis[(piperonyl)carbamate]]",> 100 µM,> 100 µM,> 100 µM,–,–,–,–,–
"O=C(OC1C=C2CCN3Cc4cc5c(cc4C(C1OC(=O)N1CCCC1)C23)OCO5)N1CCCC1 (stereo not shown) [Compound 14, Lycorine 1,2-diyl bis(pyrrolidine-1-carboxylate)]",> 100 µM,> 100 µM,> 100 µM,–,–,–,–,–
"CN(Cc1ccccc1)C(=O)OC1C=C2CCN3Cc4cc5c(cc4C(C1O)C23)OCO5 (stereo not shown) [Compound 12, Lycorine 2-yl benzyl(methyl)carbamate]",> 100 µM,> 100 µM,> 100 µM,–,–,–,–,–
"CC(C)(C)c1ccc(CNC(=O)OC2C=C3CCN4Cc5cc6c(cc5C(C2OC(=O)NCc2ccc(C(C)(C)C)cc2)C34)OCO6)cc1 (stereo not shown) [Compound 18, Lycorine 1,2-diyl bis[(4-(tert-butyl)benzyl)carbamate]]",> 100 µM,> 100 µM,> 100 µM,–,–,–,–,–
"O=C(NCc1cccc(C(F)(F)F)c1)O[C@H]1[C@H]2c3cc4c(cc3CN3CCC(=C[C@@H]1OC(=O)NCc1cccc(C(F)(F)F)c1)[C@H]23)OCO4 [Compound 22, Lycorine 1,2-diyl bis[(3-(trifluoromethyl)benzyl)carbamate]]",> 100 µM,> 100 µM,> 100 µM,–,–,–,–,–
"COc1ccc(CCNC(=O)OC2C=C3CCN4Cc5cc6c(cc5C(C2OC(=O)NCCc2ccc(OC)cc2)C34)OCO6)cc1 (stereo not shown) [Compound 4, Lycorine 1,2-diyl bis [(4-methoxyphenethyl)carbamate]]",> 100 µM,> 100 µM,> 100 µM,–,–,–,–,–
"Cc1ccc(CNC(=O)OC2C=C3CCN4Cc5cc6c(cc5C(C2O)C34)OCO6)cc1 (stereo not shown) [Compound 6, Lycorine 2-yl (4-methylbenzyl)carbamate]",> 100 µM,> 100 µM,> 100 µM,–,–,–,–,–
"CCCNC(=O)OC1C=C2CCN3Cc4cc5c(cc4C(C1O)C23)OCO5 (stereo not shown) [Compound 30, Lycorine 2-yl propylcarbamate]",> 100 µM,> 100 µM,> 100 µM,–,–,–,–,–
"O=C(OC1C=C2CCN3Cc4cc5c(cc4C(C1O)C23)OCO5)N1CCOCC1 (stereo not shown) [Compound 3, Lycorine 2-yl morpholine-4-carboxylate]",> 100 µM,> 100 µM,> 100 µM,–,–,–,–,–
"CCCNC(=O)OC1C=C2CCN3Cc4cc5c(cc4C(C1OC(=O)NCCC)C23)OCO5 (stereo not shown) [Compound 29, Lycorine 1,2-diyl bis(propylcarbamate)]",> 100 µM,> 100 µM,> 100 µM,–,–,–,–,–
"O=C(OC1C=C2CCN3Cc4cc5c(cc4C(C1OC(=O)N1CCCCC1)C23)OCO5)N1CCCCC1 (stereo not shown) [Compound 16, Lycorine 1,2-diyl bis(piperidine-1-carboxylate)]",59.2 ± 4.82 µM,26.6 ± 1.37 µM,55.4 ± 1.63 µM,2.22,1.06,Synergism,0.57,–
"O=C(NCc1ccccc1F)OC1C=C2CCN3Cc4cc5c(cc4C(C1OC(=O)NCc1ccccc1F)C23)OCO5 (stereo not shown) [Compound 20, Lycorine 1,2-diyl bis[(2-fluorobenzyl)carbamate]]",> 100 µM,> 100 µM,> 100 µM,–,–,–,–,–
"O=C(NCCc1ccc(F)cc1)OC1C=C2CCN3Cc4cc5c(cc4C(C1O)C23)OCO5 (stereo not shown) [Compound 24, Lycorine 2-yl (4-fluorophenethyl)carbamate]",> 100 µM,> 100 µM,> 100 µM,–,–,–,–,–
"O=C(NCc1ccc2c(c1)OCO2)OC1C=C2CCN3Cc4cc5c(cc4C(C1O)C23)OCO5 (stereo not shown) [Compound 8, Lycorine 2-yl (piperonyl)carbamate]",> 100 µM,> 100 µM,> 100 µM,–,–,–,–,–
"O=C(NCCc1ccccc1)O[C@H]1C=C2CCN3Cc4cc5c(cc4[C@H]([C@@H]1O)[C@@H]23)OCO5 [Compound 10, lycorine 2-yl phenethylcarbamate]",> 100 µM,> 100 µM,> 100 µM,–,–,–,–,–
"O=C(NCCc1ccc(F)cc1)OC1C=C2CCN3Cc4cc5c(cc4C(C1OC(=O)NCCc1ccc(F)cc1)C23)OCO5 (stereo not shown) [Compound 23, Lycorine 1,2-diyl bis[(4-fluorophenethyl) carbamate]]",3.79 ± 0.21 µM,> 100 µM,> 100 µM,<0.037,<0.037,–,–,–
"O=C(OC1C=C2CCN3Cc4cc5c(cc4C(C1O)C23)OCO5)N1CCCCC1 (stereo not shown) [Compound 17, Lycorine 2-yl piperidine-1-carboxylate]",> 100 µM,> 100 µM,> 100 µM,–,–,–,–,–
"COc1ccc(CNC(=O)OC2C=C3CCN4Cc5cc6c(cc5C(C2O)C34)OCO6)cc1 (stereo not shown) [Compound 11, Lycorine 2-yl (4-methoxylbenzyl)carbamate]",> 100 µM,> 100 µM,> 100 µM,–,–,–,–,–
"O[C@H]1[C@H]2c3cc4c(cc3CN3CCC(=C[C@@H]1O)[C@H]23)OCO4 [Compound 1, lycorine]",3.04 ± 0.11 µM,0.93 ± 0.01 µM,1.06 ± 0.02 µM,3.26,2.86,Moderate antagonism,–,0.87
"O=C(NCc1ccccc1F)OC1C=C2CCN3Cc4cc5c(cc4C(C1O)C23)OCO5 (stereo not shown) [Compound 21, Lycorine 2-yl (2-fluorobenzyl)carbamate]",> 100 µM,> 100 µM,> 100 µM,–,–,–,–,–
"O=C(OC1C=C2CCN3Cc4cc5c(cc4C(C1O)C23)OCO5)N1CCCC1 (stereo not shown) [Compound 15, Lycorine 2-yl pyrrolidine-1-carboxylate]",> 100 µM,> 100 µM,> 100 µM,–,–,–,–,–
"O=C(NCc1ccc(F)cc1)OC1C=C2CCN3Cc4cc5c(cc4C(C1OC(=O)NCc1ccc(F)cc1)C23)OCO5 (stereo not shown) [Compound 27, Lycorine 1,2-diyl bis[(4-fluorobenzyl)carbamate]]",> 100 µM,> 100 µM,> 100 µM,–,–,–,–,–
"O=C(NCc1ccccc1)OC1C=C2CCN3Cc4cc5c(cc4C(C1OC(=O)NCc1ccccc1)C23)OCO5 (stereo not shown) [Compound 32, Lycorine 1,2-diyl bis(benzylcarbamate)]",71.9 ± 5.38 µM,> 100 µM,> 100 µM,–,–,–,–,–
"O=C(NCc1ccc(F)cc1)OC1C=C2CCN3Cc4cc5c(cc4C(C1O)C23)OCO5 (stereo not shown) [Compound 28, Lycorine 2-yl (4-fluorobenzyl)carbamate]",> 100 µM,> 100 µM,> 100 µM,–,–,–,–,–
